Columns and labels:
human GPR131 = target: T1, human GPR131 (Homo sapiens, UniProt Q8TDU6); experiment: Stimulation of cAMP in stable cell line expressing human GPR131 (FRET cAMP kit); format: cell-based; details: 0.5 h; 1.1 μM compound, relative to maximal stimulatory activity of lithocholic acid at 3.3 μM; 30 minutes at 37° C.; read-out: Percent Activity @ 1.1 μM (of 3.3 uM LCA) (%)
T1 construct: expressed in transfected cells
T1 sequence (Q8TDU6 1-330): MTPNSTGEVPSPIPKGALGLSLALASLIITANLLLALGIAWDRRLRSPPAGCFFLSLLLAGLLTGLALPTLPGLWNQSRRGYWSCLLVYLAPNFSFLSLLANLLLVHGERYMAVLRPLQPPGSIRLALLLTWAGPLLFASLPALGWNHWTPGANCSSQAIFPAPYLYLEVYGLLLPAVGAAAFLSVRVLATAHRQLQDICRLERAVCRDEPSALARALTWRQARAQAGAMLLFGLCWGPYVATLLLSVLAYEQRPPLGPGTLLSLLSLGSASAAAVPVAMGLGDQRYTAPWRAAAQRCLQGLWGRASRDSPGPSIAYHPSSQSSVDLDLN
Procedure, shortened: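 Stable human GPR131 cells in DMEM/F12 with 1 mM IBMX treated with compound for 30 min at 37° C. Intracellular cAMP measured by competitive FRET immunoassay (665/620 nm ratio). Values given as % activity at 1.1 μM compound relative to maximal lithocholic acid stimulation at 3.3 μM.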

[1] = Oral glucose tolerance test in C57BL/6N mice; format: in vivo; details: 100 mg/kg oral, 3 g/kg glucose, percent reduction in glucose excursion (AUC 0-120 min) vs. control animals
Method: Male mice (8-10 week old C57BL/6N, Harlan Laboratories, Inc.) were maintained on 18% Protein Rodent diet (Teklad Global Diets, Harlan Laboratories, Inc). Overnight fasted mice were randomized into groups (n=8-10) to receive the test compounds at a dose of 100 mg/kg or the vehicle (1% CMC, 2% TWEEN 80). Compounds were delivered orally via gavage. Blood glucose levels were measured by glucometer before administration of compounds and at 30 minutes post compound. The mice were then dosed orally with 3 g/kg glucose. Blood glucose measurements were taken 20, 40, 60, 90 and 120 minutes after glucose administration. Glucose levels were plotted against time and the incremental area under the curve (AUC) of the glucose excursion was determined from T=0 to T=120 min.
(§1) Oral glucose tolerance is expressed as a percent reduction in glucose excursion of animals receiving test compound vs. control animals. Incretin activity (i.e. incretin secretion) is expressed as an x-fold increase in GLP-1 production in animals receiving test compound vs. control animals.

[2] = system: Glucagon-like peptide-1 (GLP-1); experiment: Total GLP-1 secretion at end of oral glucose tolerance test; format: in vivo; details: C57/6N mice, 100 mg/kg oral; total GLP-1 at end of OGTT vs. control animals
Method: The effect of test compounds on the secretion of Glucagon-like peptide-1 (GLP-1) in C57/6N mice was determined at the end of the oral glucose tolerance test. Animals were anesthetized with pentobarbital and blood collected by heart puncture in potassium EDTA-coated microtainer tubes containing 10 μl/ml DPP-IV inhibitor and 500 KIU/ml Aprotinin. Total GLP-1 was measured using Mouse/Rat Total Glucagon-like peptide-1 assay kit (Meso Scale Discovery) and MSD SECTOR2400 Imager according to the manufacturer's instructions.
as §1

[3] = system: Glucagon-like peptide-2 (GLP-2); experiment: Total GLP-2 secretion at end of OGTT in DIO mice; format: in vivo; details: C57BL/6J DIO mice, 100 mg/kg oral; total GLP-2, 2 hours post glucose dosing
Method: (§2) 18 week old C57BL/6J diet induced obese (DIO) male mice were maintained on a 60 kcal % fat diet. Mice fasted for 9 hours were randomized into groups (n=9-10) to receive vehicle (1% CMC, 2% TWEEN 80) or test compound at a dose of 100 mg/kg. Compounds were delivered orally via gavage, and 30 minutes later mice were dosed orally with 2 g/kg glucose.
(§3) The effect of GPR131 agonists on the secretion of total Glucagon-like peptide-2 (GLP-2) and total Peptide YY (PYY) was determined at the end of the oral glucose tolerance test (2 hours post glucose dosing). Animals were anesthetized with pentobarbital and blood collected by heart puncture in potassium EDTA-coated microtainer tubes containing 10 μl/ml DPP-IV inhibitor and 500 KIU/ml Aprotinin. Total GLP-2 was measured using Total Glucagon-like peptide-2 assay kit and Total PYY was measured using Total Peptide YY assay kit.

Peptide YY (PYY) = experiment: Total PYY secretion at end of OGTT in DIO mice; format: in vivo; details: C57BL/6J DIO mice, 100 mg/kg oral, 2 hours post glucose dosing
Method: as §2, §3

## Cc1cc(CN(C)C(=O)c2cnc(SCc3c(F)ccc(F)c3F)n2-c2ccc(F)cc2)ccn1 [Compound 577, 1-(4-Fluorophenyl)-N-methyl-N-((2-methylpyridin-4-yl)methyl)-2-((2,3,6-trifluorobenzyl)thio)-1H-imidazole-5-carboxamide]
Human GPR131
  activation at 1.1 µM: 100%
[1]
  Glucose Reduction (%): 24.4%
[2]
  Increase in GLP-1 (Fold): 4.1 Fold
[3]
  Increase in GLP-2 (Fold): 2.5 Fold
Peptide YY (PYY)
  Increase in PYY (Fold): 2.2 Fold
